According to US10730874B2 (Shire Human Genetic Therapies, Inc., priority 2018, dated 2020):

The molecules below were run against human activated kallikrein enzyme (plasma kallikrein) (Homo sapiens (Human), UniProt P03952) (assay: Inhibition of human activated plasma kallikrein, fluorogenic peptide substrate assay, 500 pM enzyme format). Conditions: 500 pM activated kallikrein enzyme, 300 uM Pro-Phe-Arg-7-amido-4-methylcoumarin substrate, 30 min preincubation, 10 min at RT; read-out: Primary Dose Response Assay: Average EC50.
Chain of human activated kallikrein enzyme (plasma kallikrein) (P03952 391-638): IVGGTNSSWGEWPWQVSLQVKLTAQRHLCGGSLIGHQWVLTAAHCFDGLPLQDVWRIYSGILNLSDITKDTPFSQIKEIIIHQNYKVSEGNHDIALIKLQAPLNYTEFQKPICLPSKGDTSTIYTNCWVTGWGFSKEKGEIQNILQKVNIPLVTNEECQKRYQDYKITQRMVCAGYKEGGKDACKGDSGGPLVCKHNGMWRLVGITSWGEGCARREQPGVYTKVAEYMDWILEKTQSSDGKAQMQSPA
Chain of human activated kallikrein enzyme (plasma kallikrein) (P03952 20-390 partner): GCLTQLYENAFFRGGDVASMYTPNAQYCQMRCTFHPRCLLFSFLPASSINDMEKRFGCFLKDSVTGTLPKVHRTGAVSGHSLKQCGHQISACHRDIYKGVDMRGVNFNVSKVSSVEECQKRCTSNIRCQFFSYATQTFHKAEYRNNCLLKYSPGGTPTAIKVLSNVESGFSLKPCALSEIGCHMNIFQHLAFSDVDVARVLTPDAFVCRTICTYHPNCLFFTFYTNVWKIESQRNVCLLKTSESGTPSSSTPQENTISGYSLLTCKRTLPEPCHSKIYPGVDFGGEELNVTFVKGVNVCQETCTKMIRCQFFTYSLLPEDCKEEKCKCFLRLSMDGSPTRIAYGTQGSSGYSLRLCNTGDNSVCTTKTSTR
Format: biochemical
Summary of the method: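 Buffer 20 mM Tris pH 7.5, EDTA, NaCl, PEG-400, Triton X-100; 300 uM Pro-Phe-Arg-AMC; enzyme–inhibitor preincubation 30 min RT. Format one: 500 pM kallikrein, 10 min RT reaction; format two: 5 pM kallikrein, 18 h RT reaction. Fluorescence read at 460 nm (380 nm excitation).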

SMILES | EC50
O=C(NCc1ncn2ccc(Br)cc12)c1cn(Cc2cn3cc(C4CC4)ccc3n2)nc1C1CC1 [Example I-85, N-((7-bromoimidazo[1,5-a]pyridin-1-yl)methyl)-3-cyclopropyl-1-((6-cyclopropylimidazo[1,2-a]pyridin-2-yl)methyl)-1H-pyrazole-4-carboxamide] | < 1 nM
O=C(NCc1ncn2ccc(Cl)cc12)c1cnn(Cc2cn3c(Br)cccc3n2)c1 [Example I-27, 1-((5-bromoimidazo[1,2-a]pyridin-2-yl)methyl)-N-((7-chloroimidazo[1,5-a]pyridin-1-yl)methyl)-1H-pyrazole-4-carboxamide] | 1 to 10 nM
Nc1ccc(C2CC2)c2nc(Cn3cc(C(=O)NCc4ncn5ccc(Cl)cc45)cn3)cn12 [Example I-89, 1-((5-amino-8-cyclopropylimidazo[1,2-a]pyridin-2-yl)methyl)-N-((7-chloroimidazo[1,5-a]pyridin-1-yl)methyl)-1H-pyrazole-4-carboxamide] | 100 to 2000 nM
C=Cc1ccn2cnc(CNC(=O)c3cnn(Cc4cn5cc(C6CC6)ccc5n4)c3)c2c1 [Example I-118, 1-((6-cyclopropylimidazo[1,2-a]pyridin-2-yl)methyl)-N-((7-vinylimidazo[1,5-a]pyridin-1-yl)methyl)-1H-pyrazole-4-carboxamide] | 1 to 10 nM
O=C(O)CCc1nn(Cc2cn3cc(C4CC4)ccc3n2)cc1C(=O)NCc1ncn2ccc(Cl)cc12 [Example I-73, 3-(4-(((7-chloroimidazo[1,5-a]pyridin-1-yl)methyl)carbamoyl)-1-((6-cyclopropylimidazo[1,2-a]pyridin-2-yl)methyl)-1H-pyrazol-3-yl)propanoic acid] | < 1 nM

Results, then the molecule that gave them:

EC50 | SMILES
< 1 nM | O=C(NCc1ncn2ccc(Cl)c(F)c12)c1cn(Cc2cn3cc(C4CC4)cc(-c4cnoc4)c3n2)nn1 [Example I-225, N-((7-chloro-8-fluoroimidazo[1,5-a]pyridin-1-yl)methyl)-1-((6-cyclopropyl-8-(isoxazol-4-yl)imidazo[1,2-a]pyridin-2-yl)methyl)-1H-1,2,3-triazole-4-carboxamide]
< 1 nM | O=C(NCc1ncn2ccc(Cl)c(F)c12)c1cn(Cc2cn3cc(C4CC4)cc(CS(=O)(=O)NCC(F)(F)F)c3n2)nn1 [Example I-281, N-((7-chloro-8-fluoroimidazo[1,5-a]pyridin-1-yl)methyl)-1-((6-cyclopropyl-8-((N-(2,2,2-trifluoroethyl)sulfamoyl)methyl)imidazo[1,2-a]pyridin-2-yl)methyl)-1H-1,2,3-triazole-4-carboxamide]
< 1 nM | COC(=O)C1CCN(c2cc(C3CC3)nn3cc(Cn4cc(C(=O)NCc5ncn6ccc(Cl)c(F)c56)nn4)nc23)C1 (centres unmarked) [Example I-266, methyl 1-(2-((4-(((7-chloro-8-fluoroimidazo[1,5-a]pyridin-1-yl)methyl)carbamoyl)-1H-1,2,3-triazol-1-yl)methyl)-6-cyclopropylimidazo[1,2-b]pyridazin-8-yl)pyrrolidine-3-carboxylate]
< 1 nM | CCOC(=O)Cc1cc(C2CC2)cn2cc(Cn3cc(C(=O)NCc4ncn5ccc(Cl)c(F)c45)nn3)nc12 [Example I-157a, ethyl 2-(2-((4-(((7-chloro-8-fluoroimidazo[1,5-a]pyridin-1-yl)methyl)carbamoyl)-1H-1,2,3-triazol-1-yl)methyl)-6-cyclopropylimidazo[1,2-a]pyridin-8-yl)acetate]
< 1 nM | O=C(NCc1ncn2ccc(Cl)c(F)c12)c1cn(Cc2cn3cc(C4CC4)cc(C(=O)O)c3n2)nn1 [Example I-166b, 2-((4-(((7-chloro-8-fluoroimidazo[1,5-a]pyridin-1-yl)methyl)carbamoyl)-1H-1,2,3-triazol-1-yl)methyl)-6-cyclopropylimidazo[1,2-a]pyridine-8-carboxylic acid]
< 1 nM | O=C(NCc1ncn2ccc(Cl)c(F)c12)c1nnn(Cc2cn3nc(C4CC4)ccc3n2)n1 [Example I-289, N-((7-chloro-8-fluoroimidazo[1,5-a]pyridin-1-yl)methyl)-2-((6-cyclopropylimidazo[1,2-b]pyridazin-2-yl)methyl)-2H-tetrazole-5-carboxamide]
